Read-outs that look alike come from different tables or passages of the source.
Test system: CLAUDIN 1
Settings: human keratinocytes
Description: Cultures of human keratinocytes are treated with two concentrations of solutions, of the hexadecapeptide PuraMatrix™ (supplied by BD Science). The lower concentration, which is below the estimated critical aggregation concentration (CAC) at which the RADA-16I (SEQ ID NO:1) monomer self-assembles, while the higher concentration is above the CAC.

RADARADARADARADA [PuraMatrix ™]
CLDN1 LEVEL (High Concentration, above the CAC): 1.39
CLDN1 LEVEL (Low Concentration, below the estimated critical aggregation concentration (CAC)): 1.09
CLAUDIN 1 regulation (in words) (higher concentration, above the estimated critical aggregation concentration): significantly upregulates
